Consider 12 molecules from patent US5665735A, “Unbridged bis-aryl carbinol derivatives compositions and methods of use” (Schering Corporation, priority 1995, dated 1997).

Like-named read-outs stand apart in the source and are kept apart here.

As a reminder, the IC50 is the concentration needed to halve the response being measured. In general, inhibition refers to the percentage by which the read-out fell short of the control. A higher inhibition goes with strong suppression.

The subject of experiment [1] is histamine-induced bronchospasm. The experiment is described as follows: Agonist-induced bronchospasm in guinea pigs, histamine (in vivo, oral). Also noted: species or system guinea pig (male Hartley). How it is done: (§1) In Vivo Studies: Agonist-Induced Responses--Spasmogen-Induced Bronchospasm in Guinea Pigs
(§2) Male Hartley guinea pigs (450-550 g) were obtained from Charles River Breeding Laboratories. The animals were fasted overnight and the following day were anesthetized with 0.9 mL/kg i.p. of dilaurethane (containing 0.1 g/mL diallylbarbituric acid, 0.4 g/ml ethylurea and 0.4 g/ml urethane). The left jugular vein was cannulated for the administration of compounds. The trachea was cannulated and the animals were ventilated by a rodent respirator at 55 strokes/min. with a stroke volume of 4 mL. A side arm to the tracheal cannula was connected to a pressure transducer to obtain a continuous measure of inflation pressure. Bronchoconstriction was measured as the percent increase in inflation pressure that peaked within 5 min. after challenge with spasmogen. […] Each animal was challenged with only a single spasmogen. The effect of a compound on the bronchospasm is expressed as a percent inhibition of the increase in inflation pressure compared to the, increase in a control group.

The test system of experiment [2] is PAF-induced platelet aggregation. The experiment in a line: Platelet aggregation assay: inhibition of platelet aggregation induced by PAF (in vitro). Format: cell-based. Conditions: Homo sapiens; for IC50: read-out: PAF antagonism (in vitro) IC50; for inhibition at 0.12 µM: concentration 0.12 μM; for inhibition at 0.25 µM: concentration 0.25 μM; for inhibition at 0.5 µM: concentration 0.5 μM; for inhibition at 0.125 µM: concentration 0.125 μM; for inhibition at 5 µM: concentration 5 μM; for inhibition at 50 µM: concentration 50 μM; for inhibition at 2.5 µM: concentration 2.5 μM. How it is done: A. In Vitro Studies--Platelet Aggregation Assay
Platelet-activating factor (PAF) causes aggregation of platelets by a receptor-mediated mechanism. Therefore, PAF-induced platelet aggregation provides a simple and convenient assay to screen compounds for PAF antagonism.
Blood was centrifuged at 110×g for 15 min. and the supernatant platelet-rich plasma (PRP) carefully transferred into a polypropylene tube. Platelet-poor-plasma (PPP) was prepared by centrifuging PRP at 12,000×g for 2 min. PRP was used within 3 hr. of drawing the blood.
PAF was dissolved in chloroform:methanol (1:1, v/v) at a concentration of 2 mg/mL and stored at -70° C. An aliquot of this solution was transferred to a polypropylene tube and […] under a flow of nitrogen gas. […] The solution was sonicated for 5 min. This stock solution was further diluted to appropriate concentrations in Hepes-saline-BSA buffer. Collagen and adenosine diphosphate (ADP) were purchased as solutions. Test compounds were initially dissolved in dimethyl sulfoxide (DMSO) at a concentration of 50 mM and then further diluted in Hepes-saline-BSA buffer to achieve appropriate concentrations.
When an aggregating agent such as PAF is added to PRP, platelets aggregate. An aggregometer quantifies this aggregation by measuring and comparing light (infra-red) transmission through PPP and PRP. Aggregation assays were performed using a dual-channel aggregometer. PRP (0.45 ml) in aggregometer cuvettes was continually stirred (37° C.). Solutions (50 μL) of test compounds or vehicle were added to the PRP and, after incubation for 2 min., 10-15 μL aliquots of PAF solution were added to achieve a final concentration of 1-5×10^-8 M. In different experiments the aggregatory response was kept within a set limit by varying the concentration of PAF. Incubations were continued until the increase in light transmission reached a maximum (usually 2 min.). This increase in light transmission reflecting platelet aggregation is transmitted to a computer. The computer calculates the slope of transmission change, thus providing the rate of aggregation. Values for inhibition were calculated by comparing rates of aggregation obtained in the absence and the presence of the compound. For each experiment, a standard PAF antagonist such as 8-chloro-6,11-dihydro-11-(1-acetyl-4-piperidylidene)-5H-benzo[5,6]cyclohepta[1,2-b]pyridine was used as a positive control.
Compounds that inhibit PAF-induced aggregation were tested against several other aggregating agents including collagen (0.2 mg/ml) and ADP (2 μM).

For experiment [3], the system named is PAF-induced bronchospasm. The experiment in a line: Agonist-induced bronchospasm in guinea pigs, PAF (in vivo, oral). Further details: species or system guinea pig (male Hartley). The protocol: as §1, §2

Regarding `CCOC(=O)N1CCC(=C2c3ccc(Cl)cc3CCc3cccnc32)CC1` [Compound A, reference compound], the “Histamine agonist bronchospasm % inhibition” value in experiment [1] (1 mg/kg) is over 50%. For the same molecule, the IC50 in experiment [2] was over 50000 nM. For the same molecule, the “PAF agonist bronchospasm % inhibition” value in experiment [3] (10 mg/kg) is under 50%.

For `CC(=O)N1CCC(=C2c3ccc(Cl)cc3CCc3cccnc32)CC1` [Compound B, reference compound], the “Histamine agonist bronchospasm % inhibition” value in experiment [1] (3 mg/kg) is listed as 48%. Besides, in experiment [2] (in vitro, known compounds, for purposes of comparison), the IC50 stood at 610 nM. Besides, in experiment [3] (3 mg/kg), the “PAF agonist bronchospasm % inhibition” value came out at 4%.

For `O=C(c1cc[n+]([O-])cc1)N1CCC(=C2c3ccc(Cl)cc3CCc3cccnc32)CC1` [Compound C, reference compound], the “PAF agonist bronchospasm % inhibition (duration)” value in experiment [3] (5 mg/kg, time 4 (unit not given)) was 37%; in experiment [3] (5 mg/kg, time 8 (unit not given)), 12%.

On to `CC(=O)N1CCC(=C2c3ccc(Cl)cc3CCc3cccnc32)CC1` [Compound D, reference compound], for which the “PAF agonist bronchospasm % inhibition (duration)” value turned out to be 61% in experiment [3] (15 mg/kg, time 4 (unit not given)) and 32% in experiment [3] (15 mg/kg, time 8 (unit not given)).

As to `O=C(c1cc[n+]([O-])cc1)N1CCC(C(O)(c2ccccn2)c2ccccn2)CC1` [Formula 1.0A1], in experiment [2], at 0.12 µM the inhibition was 28%, the inhibition at 0.25 µM was 68% and the inhibition at 0.5 µM turned out to be 97%. Moreover, in experiment [3] (3 mg/kg), the “PAF agonist bronchospasm % inhibition” value came to 93%.

In turn, `O=C(c1cc[n+]([O-])cc1)N1CCC(C(O)(c2ccc(Cl)cc2)c2ccccn2)CC1` (centres unmarked) [Formula 1.0A3] showed an inhibition at 0.063 µM in experiment [2] (concentration 0.063 μM) of 41%. In experiment [2], this molecule yielded an inhibition at 0.125 µM of 53%, an inhibition at 0.25 µM of 69%, an inhibition at 0.5 µM of 88% and an inhibition at 5 µM of 95%. For the same molecule, in experiment [2], the inhibition at 50 µM is 92%. Also, the “PAF agonist bronchospasm % inhibition” value in experiment [3] (3 mg/kg) is 87%.

For the molecule `[O-][n+]1ccc(CN2CCC(C(O)(c3ccccc3)c3cccs3)CC2)cc1` (centres unmarked) [Formula 1.0A5], in experiment [2], at 0.12 µM the inhibition was 35%, the inhibition at 0.25 µM turned out to be 41%, the inhibition at 0.5 µM was 59% and the inhibition at 2.5 µM is 91%. In experiment [2] (concentration 1.2 μM), this molecule came in with an inhibition at 1.2 µM of 81%. The “PAF agonist bronchospasm % inhibition” value in experiment [3] (3 mg/kg) was 20%.

In experiment [2], `O=C(c1cc[n+]([O-])cc1)N1CCC(C(O)(c2ccc(Cl)cc2)c2cccs2)CC1` (centres unmarked) [Formula 1.0A8] returned an inhibition at 0.5 µM of 74%, an inhibition at 2.5 µM of 55%, an inhibition at 5 µM of 100% and an inhibition at 50 µM of 89%. The molecule also registered an inhibition at 1.25 µM in experiment [2] (concentration 1.25 μM) of 26%. Besides, the “PAF agonist bronchospasm % inhibition” value in experiment [3] (3 mg/kg) came to 0%.

In experiment [2], `[O-][n+]1ccc(CN2CCC(C(O)(c3ccc(Cl)cc3)c3cccs3)CC2)cc1` (centres unmarked) [Formula 1.0A9] gave an inhibition at 5 µM of 24% and an inhibition at 50 µM of 100%.

On to `O=C(c1cc[n+]([O-])cc1)N1CCC(C(O)(c2ccc(Cl)cc2)c2nccs2)CC1` (stereo not drawn) [Formula 1.0A10, α-(4-chlorophenyl)-1-(4-pyridinylcarbonyl)-α-(2-thiazolyl)-4-piperidinemethanol N^1-oxide], for which, in experiment [1] (10 mg/kg), the “Histamine agonist bronchospasm % inhibition” value is on record as 12%. Also, in experiment [2], the inhibition at 0.125 µM is 52%, the inhibition at 0.25 µM is 67%, the inhibition at 0.5 µM was 88% and the inhibition at 5 µM is 92%. In addition, the inhibition at 50 µM in experiment [2] was 86%. For the same molecule, the “PAF agonist bronchospasm % inhibition” value in experiment [3] (3 mg/kg) came to 93%. Moreover, in experiment [3] (4 mg/kg, time 6 (unit not given)), the “PAF agonist bronchospasm % inhibition (duration)” value is 99%.

On to `[O-][n+]1ccc(CN2CCC(C(O)(c3ccc(Cl)cc3)c3nccs3)CC2)cc1` (centres unmarked) [Formula 1.0A11], for which, in experiment [2], the inhibition at 0.5 µM was determined as 7%, the inhibition at 5 µM was 76% and the inhibition at 50 µM was found to be 83%.

As for `O=C(c1cc[n+]([O-])cc1)N1CCC(C(O)(c2ccccn2)c2nccs2)CC1` (centres unmarked) [Formula 1.0A12], in experiment [2], the inhibition at 0.25 µM was determined as 47%, 0.5 µM produced 58% inhibition, at 5 µM the inhibition was 98% and at 50 µM the inhibition was 100%.
